The values below come from PubChem BioAssay AID1188 (EPA DSSTox, 2008).

Several values for one entry are separate records, joined by “and”; a condition that tells them apart may be missing. Equal entries are not always repeated. Activity calls are given as the source filed them.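 Rule for the calls: active = a concentration killing half the fathead minnows in the acute test was determined; inconclusive = some fish died but not half at top dose; inactive = no fish died even at top dose.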

For the data set, the system named is Fathead minnow (Pimephales promelas) acute toxicity, lethality. In words: DSSTox (EPAFHM) EPA Fathead Minnow Acute Toxicity. The method, boiled down: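 Activity score is an integer 1–100 scaling of log10(1/LC50 in mmol) between dataset minimum and maximum, highest potency = 100. Underlying LC50 values (mg) come from the U.S. EPA MED database.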
For `CCSCCSCC`, the Potency was 401 µM. As for `C1CCC(C2CCCCC2)CC1`, the outcome was “inactive; moa not determined either due to lack of toxicity at saturation or late test res”. For the compound `CC(O)CC(C)(C)O` (centres undefined), the Potency was 90500 µM. Still for that read-out and setting: for `CSCCCCCCSC` the value was 56.6 µM; for `CC1(C)CC(=O)CC(=O)C1`, 82000 µM. Regarding `CCOC(=O)CC(SP(=S)(OC)OC)C(=O)OCC` (centres undefined), the Potency is 42.7 µM. As to `CN(C)CCCCl`, the Potency is 841 µM. Same read-out and setting: under `CCCOC(C)=O` stands 587 µM; under `O=[N+]([O-])c1ccccc1Oc1ccc(Cl)cc1`, 7.69 µM. For the compound `O=C(O)c1ccccc1O`, the Potency was 12500 µM. Regarding `CC#N`, the Potency was 40100 µM. Same read-out and setting: for `CCCCCCO` the value was 956 µM; for `c1ccc(CC2=NCCN2)cc1`, 1800 µM. For the compound `CCCCCCCCCCCC(N)=O`, the outcome was “inactive; moa not determined either due to lack of toxicity at saturation or late test res”. Same read-out and setting: for `c1ccc(-c2ccc(-c3ccccc3)o2)cc1` the value was “inactive; moa not determined either due to lack of toxicity at saturation or late test res”. Consider `Oc1ccc(Cl)cc1Cc1cc(Cl)ccc1O`, for which the Potency is 1.15 µM. Still for that read-out and setting: for `CCOP(=S)(OCC)Oc1cc(C)nc(C(C)C)n1` the value was 30.7 µM; for `CC(C)(C)c1ccc(Oc2cccc(C=O)c2)cc1`, 1.45 µM. Still for that read-out and setting: under `ClCCCCl` stands 982 µM; under `COC(=O)c1cc(Cl)ccc1Cl`, 68.3 µM; under `Nc1ccc([N+](=O)[O-])cc1Cl`, 116 µM.

Take `CCCCCCCCOC(=O)c1ccc(C(=O)OCCCCCCCC)cc1`: the outcome is “inactive; moa not determined either due to lack of toxicity at saturation or late test res”. As for `COc1cc(C=O)cc(Br)c1O`, the Potency is 258 µM.

Regarding `Brc1ccccc1Br`, the Potency is 17.2 µM. Regarding `CC(=O)CC(C)C`, the Potency was 5210 µM. Regarding `CCCCCOCCCCC`, the Potency is 19.8 µM. Still for that read-out and setting: for `CC/C=C\CCO` the value was 3800 µM. Regarding `CS(C)=O`, the Potency is 435000 µM.

As to `CCCc1ccc(O)cc1`, the Potency is 80.8 µM. For `O[C@@H]1C[C@H]2CC[C@@H]1C2`, the Potency is 2030 µM.

For the compound `C=CCC1(C(C)CCC)C(=O)N=C(O)NC1=O` (centres undefined), the Potency is 90.7 µM. For `CCCCCO`, the Potency was 5360 µM.

With `OC(c1ccc(Cl)cc1)(c1ccc(Cl)cc1)C(Cl)(Cl)Cl`, the Potency is 1.67 µM. On to `CCCCCCCCCCCCCO`, for which the outcome was “inactive; moa not determined either due to lack of toxicity at saturation or late test res”. As for `Brc1nc(Br)c(Br)[nH]1`, the Potency is 20.1 µM. In the case of `OC1CCCCC1`, the Potency is 7030 µM. Same read-out and setting: for `CNC(=O)Oc1ccc(C(C)(C)C)cc1` the value was 48.2 µM. Same read-out and setting: for `O=C(O)c1ccccc1` the value was 3360 µM. As to `C=CCCCCCCC=C`, the Potency was 2.1 µM. As to `Oc1ccccc1`, the Potency was 347 µM. On the same count and under the same terms, for `OCC(Cl)(Cl)Cl` the value was 2000 µM.

As to `CCCCCCCCCCCCCC=O`, the outcome was “inactive; moa not determined either due to lack of toxicity at saturation or late test res”. `CCC(C)c1cc([N+](=O)[O-])cc([N+](=O)[O-])c1O` (centres undefined): the Potency is 2.23 µM. The same measure, in the same setting: for `C=C[C@@](C)(O)CC[C@H]1C(=C)CC[C@H]2C(C)(C)CCC[C@]12C` the value was 0.413 µM. On the same count and under the same terms, for `O=Cc1cc(Cl)ccc1O` the value was 4.92 µM; for `CCCCCCCCCCC(C)=O`, 6.4 µM.

Consider `OCCOCCO`, for which the Potency was 709000 µM. Same read-out and setting: under `Clc1cccc(Cl)c1` stands 54.6 µM. The same measure, in the same setting: under `CCCSCCSCCC` stands 42.2 µM; under `Cc1ccc(C)c(C)c1`, 64.2 µM. For the compound `c1ccc(N(c2ccccc2)c2ccccc2)cc1`, the outcome was “inactive; moa not determined either due to lack of toxicity at saturation or late test res”. Turning to `N#Cc1cc(Cl)c(O)c(Cl)c1`, the Potency was 129 µM. Same read-out and setting: for `ClC(Cl)=C(Cl)Cl` the value was 99.5 µM.

On to `C[N+](C)(C)c1ccccc1`, for which the Potency is 924 µM and 1000 µM. Still for that read-out and setting: for `Cc1nc(C)c(C)o1` the value was 4040 µM. In the case of `Clc1cc(Cl)c(SSc2cc(Cl)c(Cl)cc2Cl)cc1Cl`, the outcome was “inactive; moa not determined either due to lack of toxicity at saturation or late test res”. As for `CC(C)OC(C)C`, the Potency was 7690 µM. Still for that read-out and setting: under `CCCCCCCCC#N` stands 37.7 µM; under `O=C1CCCCC1`, 6330 µM.

With `CCCCO`, the Potency was 23300 µM. Still for that read-out and setting: for `ClCCl` the value was 3890 µM; for `CCCCCCC(C)N` (centres undefined), 40.2 µM. As to `C#CCN(CC#C)CC#C`, the Potency was 2260 µM. As to `C=CCC(O)C=C` (centres undefined), the Potency was 388 µM. Still for that read-out and setting: for `CC1(C)[C@H]2CC[C@]1(C)[C@H](O)C2` the value was 410 µM; for `C#CCCO`, 515 µM. On the same count and under the same terms, under `Nc1c(Cl)c(Cl)cc(Cl)c1Cl` stands 1.17 µM. On the same count and under the same terms, under `C1=CC2CCC1C2` stands 106 µM.

For `CC1(C)OCC(CO)O1` (centres undefined), the Potency was 126000 µM.

For the compound `CN(C)c1ccc(/C=C/C=O)cc1`, the Potency is 36.7 µM.

Turning to `CC(=O)C(C)CN(C)C` (centres undefined), the Potency is 65.8 µM. For `Cl/C=C/CCl`, the Potency was 2.15 µM.

Consider `CCCCOC(=O)c1cccc(C(=O)OCCCC)c1`, for which the Potency was 3.23 µM. As to `O=Cc1cccc(C(F)(F)F)c1`, the Potency was 5.31 µM.

For `COC(=O)c1ccc(O)cc1O`, the Potency was 272 µM.

Take `c1ccc(-c2cccc(-c3ccccc3)n2)cc1`: the Potency is 0.908 µM. The same measure, in the same setting: for `CCCCCCCCN` the value was 40.2 µM; for `CCNCc1ccccc1`, 422 µM.

For `Cc1cc(Oc2ccc([N+](=O)[O-])cc2)ccc1Cl`, the outcome is “inactive; moa not determined either due to lack of toxicity at saturation or late test res”. `CCCCCCC1CCC(=O)O1` (centres undefined): the Potency is 106 µM. Turning to `CC(Cl)(Cl)Cl`, the Potency is 355 µM. As to `CC1(C)CCC(C)(C)O1`, the Potency is 1310 µM. On to `CCc1ccc(O)cc1`, for which the Potency was 85.1 µM. Still for that read-out and setting: under `CCCCCCCCCCc1ccc(N)cc1` stands 0.266 µM. For `O=Cc1c(F)cccc1Cl`, the Potency is 59.3 µM. Turning to `CCOC(=O)c1cccc(N)c1`, the Potency was 302 µM. Still for that read-out and setting: for `Oc1cc(Cl)c(Cl)cc1O` the value was 4.97 µM; for `CCCCOC(=O)CCCCC(=O)OCCCC`, 14.1 µM.

Take `O=C1NS(=O)(=O)c2ccccc21`: the Potency was 82000 µM.

For the compound `CCCCCC(=O)OCC`, the Potency is 61.7 µM. Same read-out and setting: under `CC(C)=CC=C(C)C` stands 34.3 µM; under `Nc1ccc(F)cc1`, 152 µM. In the case of `CCOC(=O)c1ccccc1O`, the Potency is 122 µM. Consider `CN(C)c1ccc(C=O)cc1`, for which the Potency was 306 µM.

Take `CC(=O)c1ccc(Cl)c([N+](=O)[O-])c1`: the Potency is 27.6 µM.

Take `Nc1ccc(F)c(C(F)(F)F)c1`: the Potency was 168 µM.

Regarding `c1cc[c]([Sn]([c]2ccccc2)([c]2ccccc2)[c]2ccccc2)cc1`, the outcome is “inactive; moa not determined either due to lack of toxicity at saturation or late test res”. Regarding `CCOC(=O)C(Cl)C(=O)OCC`, the Potency was 4.88 µM.

Turning to `CC1CNCCN1` (centres undefined), the Potency is 22400 µM. The same measure, in the same setting: for `Cc1ccccc1C#N` the value was 382 µM; for `ClCCCCCl`, 406 µM; for `CC(C)(c1cc(Cl)c(O)c(Cl)c1)c1cc(Cl)c(O)c(Cl)c1`, 3.63 µM.

As for `CC(C)c1ccc(C=O)cc1`, the Potency was 44.7 µM. In the case of `c1cc(CCc2ccncc2)ccn1`, the Potency is 820 µM. In the case of `CCCCOC(=O)c1ccccc1C(=O)OCCCC`, the Potency was 3.59 µM.

Turning to `Oc1ccc(Oc2ccc(O)cc2)cc1`, the Potency was 28.6 µM. Consider `CCOP(=S)(OCC)SCCSCC`, for which the Potency was 9.95 µM. As for `CC(C)(O)C(Cl)(Cl)Cl`, the Potency is 362 µM. The same measure, in the same setting: under `O=P(Oc1ccccc1)(Oc1ccccc1)Oc1ccccc1` stands 2.66 µM. Same read-out and setting: under `CCc1ccc(C)nc1` stands 669 µM. Turning to `S=c1[nH]c2cc(Cl)ccc2s1`, the Potency was 15.9 µM. As for `Nc1ccc(Cl)cc1`, the Potency is 246 µM. Still for that read-out and setting: for `CCCCCCCCCCCC(C)=O` the value was 1.81 µM; for `COCCCNCc1cc(OC)c(OC)c(OC)c1`, 505 µM; for `O=Cc1cc(Br)cc(Br)c1O`, 3.04 µM. Turning to `NC(=O)c1ccc([N+](=O)[O-])cc1`, the Potency is 801 µM. `N#CCCCCC#N`: the Potency was 17900 µM. Same read-out and setting: for `C[CH2][Sn]([CH2]C)([CH2]C)[CH2]C` the value was 0.0468 µM; for `Cn1c(=O)c2c(ncn2C)n(C)c1=O`, 778 µM; for `C=C[C@@]1(C)CC[C@H]2C(=CC[C@@H]3[C@]2(C)CCC[C@@]3(C)C(=O)O)C1`, 2.88 µM. Same read-out and setting: for `O=Cc1ccc(Oc2ccccc2)cc1` the value was 23.2 µM; for `C=CCNc1ccccc1`, 270 µM; for `NCCCN`, 16100 µM.

Consider `CCOCCOC(C)=O`, for which the Potency was 319 µM.

As for `O=Cc1ccc(O)cc1O`, the Potency is 95 µM. Regarding `C#CC(C)O` (centres undefined), the Potency is 167 µM.

On to `O=Cc1cc([N+](=O)[O-])ccc1Cl`, for which the Potency was 20.9 µM. Regarding `O=S(c1ccccc1)c1ccccc1`, the Potency was 432 µM. Still for that read-out and setting: under `Cc1cc(C)c(O)c(C)c1` stands 95.4 µM. On the same count and under the same terms, under `CCC[CH2][Sn]([CH2]CCC)([CH2]CCC)[CH2]CCC` stands 0.13 µM; under `O=CN(c1ccccc1)c1ccccc1`, 154 µM; under `Oc1c(I)cc(I)cc1I`, 2.56 µM. For `CCCCOC(C)=O`, the Potency is 155 µM.

Turning to `CCN(CC)CCO`, the Potency is 15200 µM. On the same count and under the same terms, for `N#Cc1cc(I)c(O)c(I)c1` the value was 18.3 µM; for `CCN(CC)CCCC(C)=O`, 2140 µM. Still for that read-out and setting: under `CNC(=O)Oc1cccc2ccccc12` stands 43.5 µM; under `CCC(C)O` (centres undefined), 49500 µM. The same measure, in the same setting: for `CC12CCC(CC1)C(C)(C)O2` the value was 661 µM.
